Test results taken from patent publication US20260315474A1 (BRISTOL-MYERS SQUIBB COMPANY, priority 2023, published 2026).

Columns and labels:
[1] = cited from earlier work; for chronic clopidogrel vs aspirin monotherapy: atherosclerosis, including MI within 35 days
Factor XI = Factor XI clotting activity, AXIOMATIC-SSP; format: in vivo, human
Protocol: As used herein, “Factor XI Clotting Activity” is determined utilizing an aPTT-based 1-stage clotting time assay. Serial dilutions of normal pooled plasma are mixed with FXI-depleted plasma and the clotting times are measured according to standard aPTT protocol, to establish a reference range. Subject test plasma is treated in the same way and compared with the reference plasma.
In some embodiments, the Factor XI Clotting Activity is measured as follows: Factor XI (FXI) activity is measured using a modification of the activated partial thromboplastin time (aPTT) using Actin FS (Siemens Healthcare) on the Siemens BCS®XP analyzer. […]. The reference standard, at approximately 100%, is diluted by the BCS®XP analyzer in saline to generate pre-selected calibration levels of FXI. The calibration curve is plotted with FXI activity in percent (%) on the x-axis and clotting time in seconds on the y-axis. A log/lin regression curve fit is used. The samples to be tested are mixed with FXI deficient plasma (containing less than 1% FXI and at least 75% of all the other factors) to normalize all other factors. APTT reagent (Actin FS) is added and the mixture is incubated. Following incubation, calcium chloride is added to the mixture and the time to clot formation (measured optically) is compared to the time on the calibration curve. Samples are tested at the base dilution (1:10) prepared by the BCS®XP in saline. In other embodiments, formation of the fibrin clot is measured by mechanical methods (viscosity).
[…]. […] […].

[2] = AXIOMATIC-TKR Phase II trial; format: in vivo, human; settings: 25 mg twice daily
Excerpt: […]. […] (Weitz, et al., Milvexian for the Prevention of Venous Thromboembolism, N. Engl. […].

[3] = Thorough QT study (QT/QTc interval, ECG); format: in vivo, human; settings: for highest upper limit of 2-sided 90% CI for ΔΔQTcF: Day 1 and Day 4 postdose
[4] = Population pharmacokinetic analysis of AXIOMATIC-SSP PK data; format: in vivo, human; settings: 25 mg BID oral
[5] = AXIOMATIC-SSP treatment discontinuation / completion; settings: 200 mg BID, primarily due to AEs
Excerpt: The study enrolled participants ≥40 years of age who had ischemic stroke or TIA. Ischemic stroke was defined as a neurological deficit attributable to a non-lacunar, acute brain infarction detected by neuroimaging and relevant to the clinical symptoms and National Institutes of Health Stroke Score (NIHSS)≤7 at the time of randomization. TIA was defined as acute onset neurological deficit attributable to focal ischemia of the brain by history or examination, with complete resolution of the deficit and no brain infarction on neuroimaging and ABCD score ≥6 or presence of motor symptoms. Evidence of relevant intracranial or cervical arterial atherosclerotic plaque, ulceration or thrombus in a feeding artery documented by imaging was required regardless of whether the index event was ischemic stroke or TIA, and all participants were required to have a Modified Rankin Score ≤3 before the index event. […] Following informed consent, participants received ASA 100 mg QD and a single loading dose of clopidogrel 300 mg if not already given as standard of care. […] A second MRI was performed on Day 90±6 days. All participants were required to remain on study treatment until the Day 90 MRI was performed up to Day 96.

[6] = Safety and tolerability of milvexian (thorough QT study / general); format: in vivo, human
Excerpt: All 66 (100.0%) participants enrolled in the study received at least one entire dose of study intervention.

Factor Xa = settings: cited from earlier work
[7] = 25 mg BID, Day 21 anytime, N=233
[8] = 25 mg BID, Day 90 anytime, N=223
[9] = dose of 25 mg, 50 mg, or 100 mg
[10] = phase III, ACS patients, in combination with dual antiplatelet therapy

For `CC(=O)Oc1ccccc1C(=O)O` [aspirin], the “chronic clopidogrel vs aspirin monotherapy” value [1] is listed as “comparable results” and the “risk and severity of recurrent MACE” value ([1]; pooled randomized trials vs control, secondary prevention of ACS or chronic CAD) is listed as “reduces the risk and severity of early and late recurrent MACE”.
For `COC(=O)[C@H](c1ccccc1Cl)N1CCc2sccc2C1` [clopidogrel], the “chronic clopidogrel vs aspirin monotherapy” value [1] is listed as “comparable results”.
In the case of `C[C@@H]1CCC[C@H](n2cnc(-c3cc(Cl)ccc3-n3cc(Cl)nn3)cc2=O)c2cc(ccn2)-c2c(cnn2C(F)F)NC1=O` [milvexian, (5R,9S)-9-(4-(5-chloro-2-(4-chloro-1H-1,2,3-triazol-1-yl)phenyl)-6-oxopyrimidin-1(6H)-yl)-2^1-(difluoromethyl)-5-methyl-2^1H-3-aza-1(4,2)-pyridina-2(5,4)-pyrazolacyclonaphan-4-one], the “FXI Clotting Activity percent change from baseline, mean” value (Factor XI; 25 mg BID, Day 1 4 h, N=254) is reported as −7.21%, the “FXI Clotting Activity percent change from baseline, median” value (Factor XI; 25 mg BID, Day 1 4 h, N=254) is reported as −8.48% and the “FXI Clotting Activity value, median” value (Factor XI; 25 mg BID, Day 1 4 h, N=254) is reported as 100.0%. The “FXI Clotting Activity percent change from baseline, mean” value (Factor XI; 25 mg BID, Day 1 12 h, N=241) was −6.89%, the “FXI Clotting Activity percent change from baseline, median” value (Factor XI; 25 mg BID, Day 1 12 h, N=241) was −7.63% and the “FXI Clotting Activity percent change from baseline, mean” value (Factor XI; 25 mg BID, Day 1 24 h, N=253) was −9.69%. The “FXI Clotting Activity percent change from baseline, median” value (Factor XI; 25 mg BID, Day 1 24 h, N=253) was −11.30%, the “FXI Clotting Activity percent change from baseline, mean” value (Factor XI; [7]) was −18.1% and the “FXI Clotting Activity percent change from baseline, median” value (Factor XI; [7]) was −19.10%. For the same molecule, the “FXI Clotting Activity percent change from baseline, mean” value (Factor XI; [8]) was −17.7%, the “FXI Clotting Activity percent change from baseline, median” value (Factor XI; [8]) was −20.16% and the “dose-response of Factor XI clotting activity” value (Factor XI; milvexian treated groups) was “dose-dependent decreases in the Factor XI clotting activity”. The “efficacy compared with enoxaparin” value [2] was “comparable efficacy to enoxaparin”, the “safety profile compared with enoxaparin” value [2] was “favorable safety profile” and the “upper limits of all 2-sided 90% CIs of time-matched differences vs placebo in changes from baseline in QTcF” value ([3]; 100 mg) was “below 10 ms”. For the same molecule, the “upper limits of 90% CI for ΔΔQTcF at milvexian Tmax” value ([3]; 100 mg twice daily) was “below 10 ms”, the “upper bound of two-sided CI for largest ΔΔQTc (QTcF)” value ([3]; 100 mg twice daily as capsule) was “less than 10 milliseconds” and the “highest upper limit of 2-sided 90% CI for ΔΔQTcF” value ([3]; 100 mg) was 5.16 ms. The “upper limits of all 2-sided 90% CIs of time-matched differences vs placebo in changes from baseline in QTcF” value ([3]; 200 mg) was “below 10 ms”, the “upper limits of 90% CI for ΔΔQTcF at milvexian Tmax” value ([3]; 200 mg twice daily) was “below 10 ms” and the “upper bound of two-sided CI for largest ΔΔQTc (QTcF)” value ([3]; 200 mg twice daily as solution) was “less than 10 milliseconds”. The “highest upper limit of 2-sided 90% CI for ΔΔQTcF” value ([3]; 200 mg) was 4.57 ms, the “effect on QT interval (QTcF), ICH E14” value ([3]; 100 and 200 mg) was “no effect of clinical or regulatory concern on the QT interval” and the “effect on QT interval (study-specific and Bazett's correction), ICH E14” value ([3]; 100 and 200 mg) was “no effect of clinical or regulatory concern on the QT interval”. For the same molecule, the QTc interval prolongation [3, 9] was “no clinically significant QTc interval prolongation”, the ΔΔQTc [3, 9] was “less than 10 msec” and the “evidence of QT/QTc interval prolongation, ICH E14” value ([3]; therapeutic (100 mg) and supratherapeutic (200 mg)) was “does not show evidence of QT/QTc interval prolongation of clinical or regulatory concern”. The “ECG abnormalities reported as TEAE” value ([3]; whole study) was “No ECG abnormalities were reported as TEAE”, the “HR, RR interval, PR interval, QRS width” value ([3]; whole study) was “No consistent or clinically relevant changes over time were observed in HR, RR interval, PR interval, or QRS width” and the “treatment-emergent QTcF or QTcB values >480 ms or changes >60 ms” value ([3]; whole study) was “No treatment-emergent actual values of QTcF or QTcB>480 ms or changes from baseline >60 ms were observed”. For the same molecule, the “treatment-emergent actual values of QTc>480 ms” value ([3]; whole study) was “No treatment-emergent actual values of QTc>480 ms were observed”, the “treatment-emergent changes from baseline of QTcF or QTcP>60 ms” value ([3]; whole study) was “No treatment-emergent changes from baseline of QTcF or QTcP>60 ms were observed” and the “steady state mean (std) Cmax” value [4] was 346 (129) ng/mL. The “steady state mean (std) AUC0-24” value ([4]; […]) was 7290 (2940) ng*h/mL, the “early treatment discontinuation rate” value [5] was 31.60% and the safety and tolerability ([6]; administration according to the disclosure) was “generally safe and well tolerated”. The mean vital signs ([6]; whole study) was “no consistent or clinically relevant changes over time in mean vital signs”.
With `COc1c(N2C[C@@H]3CCCN[C@@H]3C2)c(F)cc2c(=O)c(C(=O)O)cn(C3CC3)c12` [moxifloxacin, reference compound] the “participants with treatment-emergent change from baseline of QTcB>60 ms, number” value ([3]; following moxifloxacin) was “One”, the “participants with treatment-emergent change from baseline of QTcB>60 ms, percent” value ([3]; following moxifloxacin) was 1.7% and the “assay sensitivity (QTc, positive control)” value ([3]; single dose 400 mg moxifloxacin) was “Assay sensitivity for moxifloxacin was also demonstrated”.
In the case of `O=C(NC[C@H]1CN(c2ccc(N3CCOCC3=O)cc2)C(=O)O1)c1ccc(Cl)s1` [rivaroxaban], the “risk of death from cardiovascular causes, myocardial infarction, and stroke” value (Factor Xa; [10]) is given as “reduced the risk of death from cardiovascular causes, myocardial infarction, and stroke”, the “risk of major bleeding” value (Factor Xa; [10]) is given as “increased the risk of major bleeding” and the bleeding risks (Factor Xa; post-ACS care) is given as “increased bleeding risks”. The cardiovascular events (Factor Xa; post-ACS care) was “reduced cardiovascular events” and the thrombin generation (Factor Xa; post-ACS care) was “decreased thrombin generation”.
